{"source": "patent US20120277298A1", "about": "“FLAVANONES-CONTAINING FOOD COMPOSITIONS” (NESTEC S.A., priority 2009, published 2012)", "assay": "Particle size distribution of hesperidin by laser diffraction (Malvern Mastersizer 2000)", "assay_type": "physicochemical", "description": "The particle size distribution is observed using a microscopy optic LEICA DMR (mode Differential Interference Contrast and polarisation). The particle size distribution is measured by laser diffraction using a Malvern Mastersizer 2000.", "data": [{"smiles": "COc1ccc([C@@H]2CC(=O)c3c(O)cc(O[C@@H]4O[C@H](CO[C@@H]5O[C@@H](C)[C@H](O)[C@@H](O)[C@H]5O)[C@@H](O)[C@H](O)[C@H]4O)cc3O2)cc1O", "note": "[Commercially available hesperidin, hesperidin]", "values": [{"measurement": "% of cumulative distribution of hesperidin particle size below 20 microns", "setting": "0.1% hesperidin in water, Example 1", "result": 40, "unit": "%"}, {"measurement": "% of cumulative distribution < 20 microns of hesperidin in water", "setting": "hesperidin in water, Example 4", "result": "Average 40%"}]}]}
